From patent US8378112B2, “Glycyrrhetinic acid derivative and use thereof” (INI Corporation, priority 2008, dated 2013) come the findings set out here.

One data set concerns C57BL/6J mice. The data set can be described thus: Hippocampal glutamate concentration determination (microdialysis, LPS stimulus). In kind it is in vivo, mouse. The settings on record: 20 mg/kg intraperitoneal simultaneously with 10 μg/2 μl LPS stimulus; FIG. 13. The method, then:
A microdialysis catheter was indwelled stereotaxically (in place) into the hippocampus of C57BL/6J mice (8 weeks of age, female, n=5 to 7). After settlement for 48 hours, the determination of the hippocampal glutamate with time was started using high-speed liquid chromatography (HPLC, HITEC-500 GAD, made by Eicom Corp. A stimulus was given by administering 10 μg/2 μl of lipopolysaccharide (LPS) through said catheter, along with an intraperitoneal injection of 20 mg/kg body weight CBX or Compound B simultaneously with the LPS stimulus administration, for a pharmacological efficacy assessment. The hippocampal glutamate concentration was quantified as a % value relative to the average value thereof from 120 minutes to 60 minutes before the stimulus was given to each individual.

A further data set has as its system mice. It is filed as in vivo. Particulars: intraperitoneal injection of 200 and 1000 mg/kg body weight.
In a further data set the test system is LPS-activated microglia. The data set can be described thus: Inhibitory effect on glutamate production by activated microglia (glutamate in neuronal medium cultured with microglia conditioned medium). It is filed as cell-based, mouse. The settings on record: for glutamate concentration in the neuron culture media: microglia cultured with 1 μg/ml LPS and compound at 1, 10, 100 μM for 24 hours. The method, then:
(§1) Next, Compound A and Compound B were checked as to their inhibitory effect on glutamate production in activated microglia. That is, mouse primary microglia were isolated from primary mixed glial cell cultures, prepared from neonatal C57BL/6 mice brains by the “shaking off” method on the 14th culture day or later (Suzumura, A. et al J. Neuroimmunol. 15, 263-278 1987). Mouse cerebral cortex primary neuronal cells were prepared from the cerebral cortices of C57BL/6J mice at embryonic day 17, and were plated on polyethyleneimine-coated cover glasses, and were used at culture day 10-13 (Takeuchi, H. et al. J. Biol. Chem. 280, 10444-10454, 2005.)
(§2) Using the culture system of neuronal cells utilizing a microglia conditioned medium, the neuronal cell damage by activated microglia was analyzed with time by the following methods (Takeuchi, H. et al. J. Biol. Chem. 280, 10444-10454, 2005.) Namely, 1 μg/ml lipopolysaccharide (LPS) and Compound A, Compound B, and carbenoxolone (CBX) at each concentration thereof (1 μM, 10 μM and 100 μM as the final concentrations) were added to a microglia culture (about 5×10^4 cells/well, a neuronal culture medium, (made by Sumitomo Bakelite Co., Ltd)) followed by incubating under 100% humidity and 5% CO2 for 24 hours. For a control, except for not adding Compound A or Compound B, microglia were incubated in a similar manner (LPS).
Each of the activated microglia conditioned media, 500 μl, 24 hrs after the administration, was added to neuronal cells (5×10^4 cells/well) in a 24-well plate, and the neuronal cells were cultured at 37° C. under 100% humidity and 5% CO2. The non-activated microglia conditioned medium was also added to neuronal cells to serve as a control (NT). 24 hours after the start of culturing, the amounts of glutamate and neuronal cell death in the conditioned medium were analyzed.
Determination of glutamate was performed by colorimetry; and neuronal cell death was assessed by the dye-exclusion method with propidium iodide under a fluorescence microscope and the terminal deoxynucleotidyl transferase-mediated […] (TUNEL) staining.

In data set [1] the test system is Mouse cerebral cortex primary neuronal cells. The data set can be described thus: Cell death of neuronal cells cultured with microglia-conditioned medium (propidium iodide, TUNEL). The settings on record: microglia conditioned medium with LPS and compound at 1, 10, 100 μM; FIG. 6. In kind it is cell-based. As to the method:
as §1
as §2, with “(LPS). […]” for “(LPS).”

For data set [2], the system named is human superoxide dismutase 1 (SOD1) G93A mutant transgenic mouse. Briefly: Survival extension effect in an ALS model mouse. Particulars: 20 mg/kg intraperitoneal 3 times a week from 6-7 weeks of age; vs PBS, p<0.0002; FIG. 7. It is filed as in vivo. As to the method: The assessment of drug efficacy was conducted using, as an animal model of neurodegenerative diseases, the human superoxide dismutase 1 (SOD1) G93A mutant transgenic mouse, which is widely used as a model of amyotrophic lateral sclerosis (ALS). Said transgenic mice were procured from Jackson Laboratory, USA.
Starting at 6-7-weeks of age, which is considered to be an early ALS onset period, they were intraperitoneally administered with 20 mg/kg body weight of Compound B, which is a novel gap junction inhibitor, CBX, or the same volume of physiological saline (PBS group) 3 times a week. The survival analysis was performed using the Kaplan-Meier method.

Data set [3] deals with human superoxide dismutase 1 (SOD1) (G93A) mutant transgenic mouse. The data set can be described thus: Survival extension effect in an acute-onset ALS model mouse. In kind it is in vivo. Particulars: 20 mg/kg intraperitoneal 3 times a week from 7-8 weeks of age; vs PBS, p<0.0001; FIG. 8. The method, then:
The assessment of drug efficacy at different Compound B concentrations was conducted using, as an animal model of neurodegenerative diseases, a human superoxide dismutase 1 (SOD1) (G93A) mutant transgenic mouse, which is widely used as an acute-onset model of amyotrophic lateral sclerosis (ALS).
Starting at 7-8-weeks of age, which is considered to be an early ALS onset period, they were intraperitoneally administered with 5, 10, and 20 mg/kg body weight of the novel gap junction inhibitor (Compound B) or the same volume of physiological saline (PBS group) 3 times a week. The survival analysis was performed using the Kaplan-Meier method.

Data set [4] deals with APP/PS1 mutant double transgenic mouse. The data set can be described thus: Novel object exploration test in Alzheimer's disease model mouse. The settings on record: 10 and 20 mg/kg intraperitoneal 3 times a week; FIG. 10. It is filed as in vivo. The method, then: (§3) The assessment of drug efficacy of Compound B was conducted using, as an animal model of neurodegenerative diseases, the human amyloid precursor protein/human presenilin-1 (APP/PS1) mutant double transgenic mouse, which is widely used as an Alzheimer's disease model mouse.
(§4) Starting at 9 months of age, which is considered to be an intermediate onset period, they were intraperitoneally administered with 10 and 20 mg/kg body weight of Compound B or the same volume of physiological saline (PBS group) 3 times a week. The control group was a wild type mouse (G57BL/6J) of the same age. Behavioral analysis was performed using the following three types of behavior experiments.
(1) Novel object exploration test: After the mice were habituated for 3 days (10 minutes/day) in an acrylic experiment apparatus, they were subjected to training. The raining consisted of placing two different objects in the apparatus and they were allowed to freely explore for 10 minutes. 24 hours after the training, Retention was carried out. The Retention consisted of replacing one of the two objects which had been placed in the apparatus during the training with a novel object and allowing the mice to freely explore for 5 minutes. The times spent exploring (touching, sniffing behavior and the like) the two objects were determined respectively. […]

Data set [5] has the same test system. Briefly: Fear conditioned learning test in Alzheimer's disease model mouse. It is filed as in vivo. The settings on record: FIG. 11. The method, then: as §3, §4
(2) Fear conditioned learning test: Associative learning was assessed using a fear conditioned learning test (Mouri et al., FASEB J. 21, 2135-2148, 2007; Nagai et al., FASEB J. 17, 50-52, and 2003). The mice were placed in a transparent acrylic cage with a stainless steel grid installed therein and were subjected to a 20 second tone stimulus (80 dB), and then further to an electric stimulus (0.6 mA). A set of this combination stimulus was repeated 4 times with 15 second intervals, thereby causing fear conditioning. A contextual dependency test and a tone stimulus dependency test were carried out 24 hours after the fear conditioning. For the former, mice were placed in the […] acrylic cage with a grid where the fear conditioning took place to determine their freezing behavior for two minutes under a context of giving no tone and no electric stimuli. For the latter, mice were placed in a black acrylic cage having wood chips on the floor thereof, to determine their freezing behavior for 1 minute when given a continuous tone stimulus. The results were expressed respectively in terms of a percentage (%) of the freezing behavior time relative to the total time for determination.

The test system is the same in data set [6]. The data set can be described thus: Morris water maze test in Alzheimer's disease model mouse. In kind it is in vivo. Particulars: FIG. 12. The method, then:
as §3, §4
(3) Morris water maze test: Spatial recognition memory was evaluated using the Morris water maze test (Mouri et al. and FASEB J. 21 2135-2148 2007; Miyamoto et al; J. Neurosci. 25, 1826-1835 2005). A 60 second trial was conducted 3 times a day to determine the swimming time (escape latency) and swimming distance (distance moved) from a different start position to a fixed platform. This was performed for seven days in row; on the eighth day, a probe test was performed with the platform removed. The Probe test involved dividing the water maze into 4 regions consisting of Target (Platform), Right, Opposite, and Left and determining the ratios of the regions in which they swam over 60 seconds. The items to be determined were determined using the SMART system (Panlab, Barcelona, Spain).

Where [7] appears, read: 10 and 20 mg/kg intraperitoneal 3 times a week.

SMILES strings stand for the structures.

`CC1(C)[C@@H](OC(=O)CCC(=O)O)CC[C@]2(C)[C@H]3C(=O)C=C4[C@@H]5C[C@@](C)(C(=O)O)CC[C@]5(C)CC[C@@]4(C)[C@]3(C)CC[C@@H]12` [CBX, carbenoxolone, reference compound]: the “inhibitory effect on the rise in hippocampal glutamate” value in the data set on C57BL/6J mice is “no inhibitory effect”. Moreover, the “deaths after acute dosing” value in the data set on mice is “all mice among the CBX administered group died within 24 hours”.

Turning to `CC1(C)[C@@H](OC(=O)c2cccnc2)CC[C@]2(C)[C@H]3C(=O)C=C4[C@@H]5C[C@@](C)(C(=O)O)CC[C@]5(C)CC[C@@]4(C)[C@]3(C)CC[C@@H]12` [Compound A], the “glutamate concentration in the neuron culture media” value with LPS-activated microglia (FIG. 5) is on record as “fell in accordance with the concentration of these compounds”. For the same molecule, the “neuronal cell death (%)” value in [1] is given as “inhibited in a concentration-dependent manner”.

`C[n+]1cccc(C(=O)O[C@H]2CC[C@]3(C)[C@H]4C(=O)C=C5[C@@H]6C[C@@](C)(C(=O)O)CC[C@]6(C)CC[C@@]5(C)[C@]4(C)CC[C@H]3C2(C)C)c1` [Compound B]: in the data set on LPS-activated microglia (100 μM, LPS-activated microglia, FIG. 5), the glutamate release inhibition result is recorded as “comparable to that of the non-stimulated microglia”. The “inhibition of glutamate release in LPS-activated microglia, comparison of compounds” value in the data set on LPS-activated microglia (LPS-activated microglia) was “notably more effective than Compound A”. The “glutamate concentration in the neuron culture media” value with LPS-activated microglia (FIG. 5) is listed as “fell in accordance with the concentration of these compounds”. The “neuronal cell death (%)” value in data set [1] was “inhibited in a concentration-dependent manner”. The “extending survival, on average” value in data set [2] is recorded as “about 14 days”; in [3] it was “about 2 weeks”. Besides, the “novel object exploratory preference” value in [4] is on record as “significantly greater than the PBS administered group”. The “freezing behavior time, tone stimulus dependency test” value in data set [5] (20 mg/kg administered group) is “significant moderation effect”; in [5] (setting [7]), “dose-dependent increase in the freezing behavior time”. Also, in data set [5] (setting [7]), the “freezing behavior time, contextual dependency test” value is reported as “significantly moderated the observed reduction in freezing behavior time”. Further, the distance swum entry in data set [6] (10 mg/kg, training day 1) was “about the same as that of the PBS administered group”; in data set [6] (10 mg/kg, training day 5-7) it was “fell significantly”; in [6] (20 mg/kg, training day 4-7) it was “significant reduction”. In addition, the swimming time entry in data set [6] (20 mg/kg, training day 4-7) is “significant reduction”. Also, the “swimming time in the target region (Probe test)” value in [6] (Compound B administered groups, day 8 probe test) is on record as “significantly increased”. Further, the “inhibitory effect on the rise in hippocampal glutamate” value in the data set on C57BL/6J mice is listed as “significant inhibitory effect”.
